Experimental data: patent US9493436B2, “Tyrosine phosphatase inhibitors and uses thereof to modulate the activity of enzymes involved in the pathology of Mycobacterium tuberculosis” (priority 2011, dated 2016)
Like-named read-outs stand apart in the source and are kept apart here.

Key:
[1] = Oral and intravenous pharmacokinetics in mice; assay type: in vivo
Method: Oral and intravenous (IV) pharmacokinetics were determined for compounds L01-Z06, L01-Z08 and L01-Z09 in mice. Drugs were administered by a single IV injection (5 mg/kg) or oral gavage (25 mg/kg) in 20% hydroxypropyl-b-cyclodextrin/2% diethanolamine and blood samples were collected at 0.5, 1, 3, 6, 9 and 24 hours later. All three compounds were readily administered by both IV and oral routes. […] Drug levels peaked at […] after IV injection, or […] after oral gavage. Based on these parameters, all three compounds are classified as highly permeable with moderate-slow clearance rates.

[2] = system: ERK1/2 phosphorylation in Raw264.7 cells expressing mPTPB; test: ERK phosphorylation in macrophage cells expressing mPTPB (western blot); assay type: cell-based, mouse; conditions: IFN-γ, L01Z08 especially at 120 and 240 nM
Method: As explained above, ERK phosphorylation is important in the cellular secretion pathway of IL-6. However, mPTPB blocks or inhibits the phosphorylation of ERK which reduces and potentially prevents IL-6 secretion altogether.
Raw264.7 mouse macrophages were cultured in Dulbecco's modified Eagle's medium (DMEM) supplemented with 10% FBS (Invitrogen), penicillin (50 units/mL), and streptomycin (50 μg/mL) under a humidified atmosphere containing 5% CO2 at 37° C. Transfected Raw264.7 cells (Vector, WT-mPTPB) were seeded in a 12-well plate at a density of 4×10^4 cells/well. The following day cells were treated with mPTPB inhibitor 213a for 1 hr, then stimulated with IFN-γ (200 U/ml) for 1 h. […]. Wash with ice-cold phosphate buffered saline, and lysed with lysis buffer on ice for 30 min. Cell lysate is then cleared by centrifuging at 13,000 rpm for 15 min. The phosphorylation of ERK1/2 and Akt was detected by western blotting.

[3] = system: Caspase 3 activity in macrophage cells expressing mPTPB; assay type: cell-based; conditions: especially at 120 and 240 nM
VHR = VHR (Homo sapiens, UniProt P51452); conditions: read-out: IC50 (μM) VHR
Chain of VHR (P51452 whole entry, species assumed): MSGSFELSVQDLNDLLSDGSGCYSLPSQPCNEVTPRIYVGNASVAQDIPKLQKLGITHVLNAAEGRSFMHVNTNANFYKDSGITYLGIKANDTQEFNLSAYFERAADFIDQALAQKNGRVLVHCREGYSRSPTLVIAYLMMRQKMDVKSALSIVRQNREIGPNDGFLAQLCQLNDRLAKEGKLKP

SMILES: O=C(O)c1cc2c(C#Cc3cccc(C(F)(F)F)c3)c(-c3ccccc3)oc2cc1O [32 (L01Z08)]
- clearance ranking among the three compounds ([1]; mice): slowest clearance of the three
- Clearance % LPF ([1]; mice, IV 5 mg/kg): 28.9 % LPF
- Clearance % LPF ([1]; mice, PO 25 mg/kg): 38.2 % LPF
- Vdss ([1]; mice, PO 25 mg/kg): 6.58 L/kg
- clearance ([1]; mice, PO 25 mg/kg): 20.602 mL/min/kg
- time active levels (sufficient to inhibit target activity by 80% in cells) maintained ([1]; mice, after oral delivery): 18.5 h
- Tmax ([1]; mouse, blood, iv, 5 mg/kg, mice, IV 5 mg/kg): 0.5 h
- half-life ([1]; mouse, blood, mice, IV 5 mg/kg): 4.1 h
- clearance ([1]; mouse, blood, mice, IV 5 mg/kg, data normalized to 25 mg/kg dose, read-out: Clearance (converted)): 15.6 mL/min/kg
- Cmax ([1]; mouse, blood, mice, IV 5 mg/kg, data normalized to 25 mg/kg dose, read-out: Cmax (ng/mL)): 10200 ng/mL
- Cmax ([1]; mouse, blood, mice, IV 5 mg/kg, data normalized to 25 mg/kg dose, read-out: Cmax nM): 25500 nM
- Vd ([1]; mouse, blood, mice, IV 5 mg/kg, read-out: Vdss): 5.53 L/kg
- half-life ([1]; mouse, blood, mice, PO 25 mg/kg): 3.7 h
- bioavailability ([1]; mouse, blood, mice, PO 25 mg/kg vs IV 5 mg/kg, read-out: Absolute Bioavailability (oral)): 75.6%
- Cmax ([1]; mouse, blood, mice, PO 25 mg/kg, read-out: Cmax (ng/mL)): 2880 ng/mL
- Cmax ([1]; mouse, blood, mice, PO 25 mg/kg, read-out: Cmax nM): 7210 nM
- oral pK values over the 24 hour duration of the assay ([1]; oral, 24 hours): remain relatively constant
- ERK phosphorylation / ERK1/2 activity [2]: normal or near normal levels
- caspase 3 activity [3]: returns caspase 3 activity to near normal levels
- IC50 (VHR): 1.9 ± 0.4 µM
